Reference: article PMC3682184 (Experimental Parasitology, 2013)
Blank lines part the entries; values can stand above or below the molecule they belong to.

What was measured:
[1] = molecular target: T1, NADP-dependent secondary alcohol dehydrogenase (E. histolytica homologue of ADH-1) (Entamoeba histolytica, UniProt P35630); assay: NADPH oxidation at […] nm in cell extract, acetaldehyde reduction; assay type: biochemical
T1 sequence (P35630 1-366): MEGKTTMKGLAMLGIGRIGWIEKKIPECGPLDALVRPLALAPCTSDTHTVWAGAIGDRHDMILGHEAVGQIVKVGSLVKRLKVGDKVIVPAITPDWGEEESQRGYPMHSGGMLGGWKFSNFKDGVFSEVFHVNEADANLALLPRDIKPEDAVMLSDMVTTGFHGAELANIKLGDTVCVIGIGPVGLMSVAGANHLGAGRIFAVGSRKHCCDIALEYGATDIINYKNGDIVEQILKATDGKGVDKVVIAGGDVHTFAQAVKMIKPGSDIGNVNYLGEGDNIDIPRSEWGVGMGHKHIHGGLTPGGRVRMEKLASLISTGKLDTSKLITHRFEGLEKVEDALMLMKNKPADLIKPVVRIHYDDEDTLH

[2] = molecular target: T2, NADP-dependent secondary alcohol dehydrogenase (ADH-1) (Trichomonas vaginalis, UniProt A2DJ40); assay: NADPH oxidation at […] nm, acetaldehyde reduction; assay type: biochemical
T2 sequence (A2DJ40 1-365): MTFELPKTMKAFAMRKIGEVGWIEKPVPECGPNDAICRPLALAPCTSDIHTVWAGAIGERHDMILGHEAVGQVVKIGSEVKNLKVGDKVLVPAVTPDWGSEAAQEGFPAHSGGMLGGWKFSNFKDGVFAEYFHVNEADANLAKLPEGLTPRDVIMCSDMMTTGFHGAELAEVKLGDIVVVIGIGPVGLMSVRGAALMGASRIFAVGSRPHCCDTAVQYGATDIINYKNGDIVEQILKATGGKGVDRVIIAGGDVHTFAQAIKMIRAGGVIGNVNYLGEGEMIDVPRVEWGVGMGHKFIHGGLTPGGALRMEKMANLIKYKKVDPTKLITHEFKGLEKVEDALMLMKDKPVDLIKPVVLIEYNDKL

purified protein [3] = substrate: CC(C)O; assay: purified protein; settings: 1 mM NADP+, pH 6.75, 37 °C
purified protein [4] = substrate: NC(=O)c1ccc[n+]([C@@H]2O[C@H](COP(=O)(O)OP(=O)(O)OC[C@H]3O[C@@H](n4cnc5c(N)ncnc54)[C@H](OP(=O)(O)O)[C@@H]3O)[C@@H](O)[C@H]2O)c1; assay: purified protein; settings: 100 mM 2-propanol, pH 6.75, 37 °C, varied: cofactor

inhibition at 200000 µM ([1]; read-out: Inhibition 2-propanol ^b aldehyde reduction): 80 ± 11%
IC50 [2]: 96 ± 11 mM
Molecule: CC(C)O [2-propanol]

inhibition at 100 µM ([1]; read-out: Inhibition CoA ^c aldehyde reduction): 62 ± 22%
IC50 [2]: 0.063 ± 0.017 mM
Molecule: CC(C)(COP(=O)(O)OP(=O)(O)OC[C@H]1O[C@@H](n2cnc3c(N)ncnc32)[C@H](O)[C@@H]1OP(=O)(O)O)[C@@H](O)C(=O)NCCC(=O)NCCS [coenzyme A]

B1: NADP-dependent secondary alcohol dehydrogenase (ADH-1) (Trichomonas vaginalis G3) (protein)
chain: T2 sequence (A2DJ40 1-365)
Km (purified protein [3]): 11.57 ± 1.25 mM
Km (purified protein [4]): 0.0412 ± 0.0044 mM
